# Results from EP4745137A1 (Gluetacs Therapeutics (Shanghai) Co., Ltd., priority 2023, dated 2025).
# Assays:
# [1] = tested on: CCRF-CEM; assay: Tumor cell proliferation inhibition (CellTiter-Meiluncell Luminescent Cell Viability Assay), CCRF-CEM; conditions: Homo sapiens, 96 h, read-out: inhibitory activity (IC50, nM) against tumor cells proliferation, CCRF-CEM
# Procedure: (§1) The tumor cells used herein were cultured in a cell culture medium listed in table 2 at 37°C in an incubator with 5% CO2. Prior to experimentation, all cell lines used were correctly identified by STR profiling, and tested negative for mycoplasma contamination using a mycoplasma detection kit through routine screenings.
# (§2) On the following day, the test compounds of the present disclosure were subjected to serial dilution. […] Subsequently, 0.5 µL of the test compound dilution was transferred into the 96-well plate containing the cells, with each well containing 100 µL of cell culture medium. […] Into the 96-well plate, the diluted test compounds and corresponding detection reagents were added, resulting in final test compound concentrations of 500 nM and 10 nM, respectively. The experimental procedure is described below using the diluted 2 µM test compound as an example.
# (§3) After the cells were treated with the compounds of the present disclosure for a specified period (the treatment durations were shown in Table 3), the cell viability assay reagent was added to the culture medium according to the kit's instructions to determine cell viability. […] All controls were treated using the same procedure as the compounds of the present disclosure. The growth inhibition curves for the compounds of the present disclosure were plotted using Prism GraphPad software, and the IC50 values were calculated therefrom.
# [2] = tested on: CAL-62; assay: Tumor cell proliferation inhibition (CellTiter-Meiluncell Luminescent Cell Viability Assay), CAL-62; conditions: Homo sapiens, CAL-62, 96 h, read-out: inhibitory activity (IC50, nM) against tumor cells proliferation, CAL-62
# [3] = biological target: T1, IKZF3 (Homo sapiens, UniProt Q96SW2+Q9UKT9); assay: Western-blot assay of substrate protein degradation in hPBMCs, IKZF3; format: cell-based; conditions: 24 hours of compound treatment, compounds tested at 50 nM and 500 nM (concentration of the table not stated)
# T1 construct: endogenous in cells; host or cells: hPBMCs (Milecell Biotechnologies)
# T1 sequence (Q9UKT9 whole entry): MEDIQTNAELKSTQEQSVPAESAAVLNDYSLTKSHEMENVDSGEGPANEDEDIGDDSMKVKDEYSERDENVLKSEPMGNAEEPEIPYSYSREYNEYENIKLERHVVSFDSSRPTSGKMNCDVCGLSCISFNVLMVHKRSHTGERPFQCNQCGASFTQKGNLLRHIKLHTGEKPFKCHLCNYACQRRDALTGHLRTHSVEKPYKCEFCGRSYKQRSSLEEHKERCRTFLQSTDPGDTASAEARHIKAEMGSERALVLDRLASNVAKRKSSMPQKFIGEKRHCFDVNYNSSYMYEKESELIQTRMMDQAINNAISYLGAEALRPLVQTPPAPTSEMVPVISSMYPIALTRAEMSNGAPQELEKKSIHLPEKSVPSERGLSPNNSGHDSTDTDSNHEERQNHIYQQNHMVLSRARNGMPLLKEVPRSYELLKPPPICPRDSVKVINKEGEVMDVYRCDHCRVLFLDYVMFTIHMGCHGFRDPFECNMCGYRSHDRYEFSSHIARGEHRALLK
# T1 sequence (Q96SW2 whole entry): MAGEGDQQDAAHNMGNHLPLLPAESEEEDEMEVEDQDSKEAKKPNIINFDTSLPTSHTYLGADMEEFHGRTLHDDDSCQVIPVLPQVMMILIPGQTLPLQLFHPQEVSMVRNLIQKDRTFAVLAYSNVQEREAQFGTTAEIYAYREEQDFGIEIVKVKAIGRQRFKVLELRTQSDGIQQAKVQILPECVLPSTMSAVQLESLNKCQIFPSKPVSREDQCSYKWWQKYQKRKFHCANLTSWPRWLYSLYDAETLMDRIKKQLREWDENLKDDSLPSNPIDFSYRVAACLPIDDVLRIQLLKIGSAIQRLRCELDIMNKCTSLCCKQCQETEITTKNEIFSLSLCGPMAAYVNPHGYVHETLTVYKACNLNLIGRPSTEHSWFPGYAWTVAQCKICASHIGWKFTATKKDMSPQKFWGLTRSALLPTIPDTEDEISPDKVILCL
# T1 sequence (Q16531 whole entry partner): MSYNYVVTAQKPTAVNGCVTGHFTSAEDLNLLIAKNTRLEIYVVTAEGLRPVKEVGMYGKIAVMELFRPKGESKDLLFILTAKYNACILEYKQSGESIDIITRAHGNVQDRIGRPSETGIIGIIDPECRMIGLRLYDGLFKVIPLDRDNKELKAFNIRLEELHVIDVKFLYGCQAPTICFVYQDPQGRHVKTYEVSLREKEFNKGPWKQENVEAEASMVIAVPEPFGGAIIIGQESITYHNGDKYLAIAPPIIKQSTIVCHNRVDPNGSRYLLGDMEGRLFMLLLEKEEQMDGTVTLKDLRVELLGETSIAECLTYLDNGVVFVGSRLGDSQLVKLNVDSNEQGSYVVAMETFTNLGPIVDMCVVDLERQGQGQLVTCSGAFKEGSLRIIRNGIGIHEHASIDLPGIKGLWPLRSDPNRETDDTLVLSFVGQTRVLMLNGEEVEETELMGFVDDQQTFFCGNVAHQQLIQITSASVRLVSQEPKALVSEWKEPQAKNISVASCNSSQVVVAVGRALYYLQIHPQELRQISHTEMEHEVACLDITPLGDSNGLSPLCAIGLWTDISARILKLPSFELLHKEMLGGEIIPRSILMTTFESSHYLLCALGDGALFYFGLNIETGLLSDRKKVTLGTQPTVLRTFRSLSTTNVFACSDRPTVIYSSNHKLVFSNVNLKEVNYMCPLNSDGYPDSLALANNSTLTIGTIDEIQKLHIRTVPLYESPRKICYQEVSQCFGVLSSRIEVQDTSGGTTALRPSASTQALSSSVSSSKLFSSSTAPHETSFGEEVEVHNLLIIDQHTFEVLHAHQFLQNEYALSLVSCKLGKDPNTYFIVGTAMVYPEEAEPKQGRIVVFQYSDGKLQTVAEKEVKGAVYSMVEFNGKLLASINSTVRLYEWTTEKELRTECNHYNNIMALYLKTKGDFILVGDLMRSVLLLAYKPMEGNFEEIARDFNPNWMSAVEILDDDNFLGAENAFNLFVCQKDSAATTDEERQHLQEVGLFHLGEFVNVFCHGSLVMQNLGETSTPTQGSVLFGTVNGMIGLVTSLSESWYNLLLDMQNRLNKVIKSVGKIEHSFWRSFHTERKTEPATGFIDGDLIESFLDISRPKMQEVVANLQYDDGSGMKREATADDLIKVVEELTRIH
# [4] = biological target: T2, WEE1 (Homo sapiens, UniProt P30291+Q96SW2); assay: Western-blot assay of substrate protein degradation in hPBMCs, WEE1; format: cell-based; conditions: 24 hours of compound treatment, compounds tested at 50 nM and 500 nM (concentration of the table not stated)
# T2 construct: endogenous in cells; host or cells: hPBMCs (Milecell Biotechnologies)
# T2 sequence (P30291 whole entry): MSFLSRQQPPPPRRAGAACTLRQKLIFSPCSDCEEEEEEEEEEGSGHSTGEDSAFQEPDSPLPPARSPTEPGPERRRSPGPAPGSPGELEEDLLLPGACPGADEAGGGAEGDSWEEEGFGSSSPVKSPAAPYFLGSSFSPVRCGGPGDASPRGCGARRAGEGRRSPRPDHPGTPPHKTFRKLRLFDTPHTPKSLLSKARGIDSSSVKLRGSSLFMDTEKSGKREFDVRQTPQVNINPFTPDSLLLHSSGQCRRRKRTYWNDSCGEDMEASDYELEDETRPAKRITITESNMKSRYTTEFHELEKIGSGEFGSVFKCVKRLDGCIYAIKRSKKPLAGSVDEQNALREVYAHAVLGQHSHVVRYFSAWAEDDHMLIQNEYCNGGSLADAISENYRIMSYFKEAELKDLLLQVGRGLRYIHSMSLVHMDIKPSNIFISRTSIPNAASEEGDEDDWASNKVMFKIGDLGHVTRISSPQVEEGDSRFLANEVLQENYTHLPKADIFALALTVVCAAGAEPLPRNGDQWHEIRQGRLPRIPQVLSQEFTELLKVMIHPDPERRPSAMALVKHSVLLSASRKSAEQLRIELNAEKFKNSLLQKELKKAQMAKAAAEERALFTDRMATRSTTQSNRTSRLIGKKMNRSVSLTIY
# T2 sequence (Q96SW2 whole entry): as the sequence (Q96SW2 whole entry) above
# T2 sequence (Q16531 whole entry partner): as the sequence (Q16531 whole entry partner) above
# [5] = tested on: MM.1R; assay: Tumor cell proliferation inhibition (CellTiter-Meiluncell Luminescent Cell Viability Assay), MM.1R; conditions: Homo sapiens, 96 h, read-out: inhibitory activity (IC50, nM) against tumor cells proliferation, MM.1R
# Procedure: as §1, §2, §3
# [6] = tested on: Jurkat; assay: Tumor cell proliferation inhibition (CellTiter-Meiluncell Luminescent Cell Viability Assay), Jurkat; conditions: Homo sapiens, 96 h, read-out: inhibitory activity (IC50, nM) against tumor cells proliferation, Jurkat
# [7] = tested on: Human breast cancer cells (MDA-MB-231); assay: Tumor cell proliferation inhibition (CellTiter-Meiluncell Luminescent Cell Viability Assay), MDA-MB-231; conditions: MDA-MB-231, 96 h, read-out: inhibitory activity (IC50, nM) against tumor cells proliferation, MDA-MB-231
# [8] = biological target: T3, CK1α (Homo sapiens, UniProt P48729+Q96SW2); assay: Western-blot assay of substrate protein degradation in hPBMCs, CK1α; format: cell-based; conditions: 24 hours of compound treatment, compounds tested at 50 nM and 500 nM (concentration of the table not stated)
# T3 construct: endogenous in cells; host or cells: hPBMCs (Milecell Biotechnologies)
# [9] = tested on: MGC803; assay: Tumor cell proliferation inhibition (CellTiter-Meiluncell Luminescent Cell Viability Assay), MGC803; conditions: Homo sapiens, MGC-803, 96 h, read-out: inhibitory activity (IC50, nM) against tumor cells proliferation, MGC803
# Procedure: as §1
# (§4) On the following day, the test compounds of the present disclosure were subjected to serial dilution. […] Subsequently, 0.5 µL of the test compound dilution was transferred into the 96-well plate containing the cells, with each well containing 100 µL of cell culture medium. […] Into the 96-well plate, the diluted test compounds and corresponding detection reagents were added, resulting in final test compound concentrations of 500 nM and 10 nM, respectively.
# as §3
# [10] = biological target: T4, GSPT1 (Homo sapiens, UniProt P15170+Q96SW2); assay: Western-blot assay of substrate protein degradation in hPBMCs, GSPT1; format: cell-based; conditions: 24 hours of compound treatment, compounds tested at 50 nM and 500 nM (concentration of the table not stated)
# T4 construct: endogenous in cells; host or cells: hPBMCs (Milecell Biotechnologies)
# T4 sequence (P15170 whole entry): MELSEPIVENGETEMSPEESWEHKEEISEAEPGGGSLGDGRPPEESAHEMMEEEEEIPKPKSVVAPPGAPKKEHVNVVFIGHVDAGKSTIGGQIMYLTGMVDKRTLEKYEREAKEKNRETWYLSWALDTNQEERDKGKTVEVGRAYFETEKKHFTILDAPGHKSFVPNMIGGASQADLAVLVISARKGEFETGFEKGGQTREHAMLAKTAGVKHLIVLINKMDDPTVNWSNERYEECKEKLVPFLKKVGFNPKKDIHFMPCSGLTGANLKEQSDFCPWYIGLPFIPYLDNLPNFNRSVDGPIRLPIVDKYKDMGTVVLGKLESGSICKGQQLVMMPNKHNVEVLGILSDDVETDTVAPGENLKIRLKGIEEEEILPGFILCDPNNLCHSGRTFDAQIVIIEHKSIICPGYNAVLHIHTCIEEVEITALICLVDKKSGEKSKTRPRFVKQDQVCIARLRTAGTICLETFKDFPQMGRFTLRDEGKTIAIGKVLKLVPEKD
# T4 sequence (Q96SW2 whole entry): as the sequence (Q96SW2 whole entry) above
# T4 sequence (Q16531 whole entry partner): as the sequence (Q16531 whole entry partner) above
# [11] = tested on: SW620; assay: Tumor cell proliferation inhibition (CellTiter-Meiluncell Luminescent Cell Viability Assay), SW620; conditions: Homo sapiens, SW-620, 96 h, read-out: inhibitory activity (IC50, nM) against tumor cells proliferation, SW620
# [12] = biological target: T5, IKZF1 (Homo sapiens, UniProt Q13422+Q96SW2); assay: Western-blot assay of substrate protein degradation in hPBMCs, IKZF1; format: cell-based; conditions: 24 hours of compound treatment, compounds tested at 50 nM and 500 nM (concentration of the table not stated)
# T5 construct: endogenous in cells; host or cells: hPBMCs (Milecell Biotechnologies)
# T5 sequence (Q13422 whole entry): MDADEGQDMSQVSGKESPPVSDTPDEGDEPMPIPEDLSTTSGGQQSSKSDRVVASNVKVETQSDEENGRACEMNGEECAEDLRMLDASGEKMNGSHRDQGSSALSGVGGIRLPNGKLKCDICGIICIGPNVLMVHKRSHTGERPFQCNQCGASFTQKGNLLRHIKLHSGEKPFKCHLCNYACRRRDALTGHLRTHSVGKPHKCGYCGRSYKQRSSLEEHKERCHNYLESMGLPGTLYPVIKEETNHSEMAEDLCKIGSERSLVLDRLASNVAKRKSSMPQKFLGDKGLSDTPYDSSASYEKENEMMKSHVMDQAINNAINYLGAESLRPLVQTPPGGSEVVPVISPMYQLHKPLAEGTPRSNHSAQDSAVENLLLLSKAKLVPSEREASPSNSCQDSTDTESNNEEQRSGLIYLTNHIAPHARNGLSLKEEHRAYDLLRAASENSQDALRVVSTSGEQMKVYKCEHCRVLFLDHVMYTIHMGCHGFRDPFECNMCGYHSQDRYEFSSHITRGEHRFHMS
# T5 sequence (Q96SW2 whole entry): as the sequence (Q96SW2 whole entry) above
# T5 sequence (Q16531 whole entry partner): as the sequence (Q16531 whole entry partner) above
# [13] = tested on: Vcap; assay: Tumor cell proliferation inhibition (CellTiter-Meiluncell Luminescent Cell Viability Assay), Vcap; conditions: Homo sapiens, 96 h, read-out: inhibitory activity (IC50, nM) against tumor cells proliferation, Vcap
# [14] = tested on: Human acute T lymphocytic leukemia cells (Molt-4); assay: Tumor cell proliferation inhibition (CellTiter-Meiluncell Luminescent Cell Viability Assay), Molt-4; conditions: MOLT-4, 96 h, read-out: inhibitory activity (IC50, nM) against tumor cells proliferation, Molt 4
# [15] = tested on: SR; assay: Tumor cell proliferation inhibition (CellTiter-Meiluncell Luminescent Cell Viability Assay), SR; conditions: Homo sapiens, 96 h, read-out: inhibitory activity (IC50, nM) against tumor cells proliferation, SR
# Procedure: as §1, §4, §3
# [16] = tested on: NCI-H1975; assay: Tumor cell proliferation inhibition (CellTiter-Meiluncell Luminescent Cell Viability Assay), NCI-H1975; conditions: Homo sapiens, NCI-H1975, 96 h, read-out: inhibitory activity (IC50, nM) against tumor cells proliferation, H1975
# [17] = biological target: T6, human Cereblon WT GST-tagged protein (Homo sapiens, UniProt Q96SW2); assay: CRBN-binding affinity by HTRF (CEREBLON BINDING kit); conditions: HTRF inhibitory activity, CEREBLON BINDING kit; read-out: HTRF IC50
# T6 construct: purchased CISBIO 64BDCRBNPEH
# T6 sequence (Q96SW2 whole entry): as the sequence (Q96SW2 whole entry) above
# [18] = biological target: T7, IKZF2 (Homo sapiens, UniProt Q96SW2+Q9UKS7); assay: Western-blot assay of substrate protein degradation in hPBMCs, IKZF2; format: cell-based; conditions: 24 hours of compound treatment, compounds tested at 50 nM and 500 nM (concentration of the table not stated)
# T7 construct: endogenous in cells; host or cells: hPBMCs (Milecell Biotechnologies)
# T7 sequence (Q9UKS7 whole entry): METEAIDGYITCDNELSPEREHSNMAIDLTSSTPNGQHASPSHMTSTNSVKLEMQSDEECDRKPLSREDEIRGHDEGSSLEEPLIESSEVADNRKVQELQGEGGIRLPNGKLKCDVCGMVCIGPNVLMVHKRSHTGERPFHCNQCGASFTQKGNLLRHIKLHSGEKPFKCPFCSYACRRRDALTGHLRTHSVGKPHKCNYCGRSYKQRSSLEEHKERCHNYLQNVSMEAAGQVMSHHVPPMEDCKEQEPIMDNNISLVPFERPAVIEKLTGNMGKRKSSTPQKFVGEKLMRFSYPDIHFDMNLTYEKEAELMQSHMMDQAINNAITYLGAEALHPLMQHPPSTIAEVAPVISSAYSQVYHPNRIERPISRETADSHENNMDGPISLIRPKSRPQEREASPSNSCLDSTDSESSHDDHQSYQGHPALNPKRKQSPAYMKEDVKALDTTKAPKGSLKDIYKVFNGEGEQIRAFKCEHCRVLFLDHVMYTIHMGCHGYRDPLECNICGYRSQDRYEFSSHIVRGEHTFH
# T7 sequence (Q96SW2 whole entry): as the sequence (Q96SW2 whole entry) above
# T7 sequence (Q16531 whole entry partner): as the sequence (Q16531 whole entry partner) above
# [19] = tested on: MV-4-11; assay: Tumor cell proliferation inhibition (CellTiter-Meiluncell Luminescent Cell Viability Assay), MV-4-11; conditions: Homo sapiens, MV4-11, read-out: inhibitory activity (IC50, nM) against tumor cells proliferation, MV-4-11
SMILES,IC50 [1] [nM],IC50 [2] [nM],IKZF3 substrate protein remaining % [3],Weel substrate protein remaining % [4],IC50 [5] [nM],IC50 [6] [nM],IC50 [7] [nM],CK1a substrate protein remaining % [8],IC50 [9] [nM],GSPT1 substrate protein remaining % [10],IC50 [11] [nM],IKZF 1 substrate protein remaining % [12],IC50 [13] [nM],IC50 [14] [nM],IC50 [15] [nM],IC50 [16] [nM],IC50 [17] [nM],IKZF2 substrate protein remaining % [18],IC50 [19] [nM]
"Cc1cscc1C1=CCN(Cc2ccc3c(c2)CN(C2CCC(=O)NC2=O)C3=O)CC1 (stereo not shown) [GT-04503, 3-(5-((4-(4-methylthiophen-3-yl)-3,6-dihydropyridin-1(2H)-yl)methyl)-1-oxoisoindolin-2-yl)piperidine-2,6-dione]",< 1,< 1,A (0% ≤ substrate protein remaining % ≤ 80%),A (0% ≤ substrate protein remaining % ≤ 80%),1 to 5,< 1,1 to 5,A (0% ≤ substrate protein remaining % ≤ 80%),5 to 10,A (0% ≤ substrate protein remaining % ≤ 80%),1 to 5,A (0% ≤ substrate protein remaining % ≤ 80%),1 to 5,< 1,1 to 5,1 to 5,< 500,A (0% ≤ substrate protein remaining % ≤ 80%),
"O=C1CCC(N2Cc3cc(CN4CCN(c5cccc(Cl)n5)CC4)ccc3C2=O)C(=O)N1 (stereo not shown) [GT-04497, 3-(5-((4-(6-chloropyridin-2-yl)piperazin-1-yl)methyl)-1-oxoisoindolin-2-yl)piperidine-2,6-dione]",1 to 5,1 to 5,A (0% ≤ substrate protein remaining % ≤ 80%),A (0% ≤ substrate protein remaining % ≤ 80%),1 to 5,1 to 5,10 to 50,A (0% ≤ substrate protein remaining % ≤ 80%),50 to 100,A (0% ≤ substrate protein remaining % ≤ 80%),10 to 50,A (0% ≤ substrate protein remaining % ≤ 80%),5 to 10,1 to 5,10 to 50,10 to 50,500 to 1000,A (0% ≤ substrate protein remaining % ≤ 80%),
"O=C1CCC(N2Cc3cc(CN4CCN(c5ccccc5)CC4)ccc3C2=O)C(=O)N1 (stereo not shown) [GT-04446, 3-(1-oxo-5-((4-phenylpiperazin-1-yl)methyl)isoindolin-2-yl)piperidine-2,6-dione]",5 to 10,5 to 10,A (0% ≤ substrate protein remaining % ≤ 80%),A (0% ≤ substrate protein remaining % ≤ 80%),5 to 10,1 to 5,100 to 500,A (0% ≤ substrate protein remaining % ≤ 80%),100 to 500,A (0% ≤ substrate protein remaining % ≤ 80%),50 to 100,A (0% ≤ substrate protein remaining % ≤ 80%),10 to 50,1 to 5,100 to 500,50 to 100,500 to 1000,A (0% ≤ substrate protein remaining % ≤ 80%),
"O=C1CCC(N2Cc3cc(CN4CCN(c5cc(Cl)ccc5Cl)CC4)ccc3C2=O)C(=O)N1 (stereo not shown) [GT-04487, 3-(5-((4-(2,5-dichlorophenyl)piperazin-1-yl)methyl)-1-oxoisoindolin-2-yl)piperidine-2,6-dione]",5 to 10,10 to 50,B (80%< substrate protein remaining %≤ 100%),B (80%< substrate protein remaining %≤ 100%),10 to 50,5 to 10,100 to 500,A (0% ≤ substrate protein remaining % ≤ 80%),50 to 100,A (0% ≤ substrate protein remaining % ≤ 80%),100 to 500,B (80%< substrate protein remaining %≤ 100%),10 to 50,5 to 10,100 to 500,50 to 100,500 to 1000,A (0% ≤ substrate protein remaining % ≤ 80%),
"Cc1cc(Cl)cc(N2CCN(Cc3ccc4c(c3)CN(C3CCC(=O)NC3=O)C4=O)CC2)n1 (stereo not shown) [GT-04491, 3-(5-((4-(4-chloro-6-methylpyridin-2-yl)piperazin-1-yl)methyl)-1-oxoisoindolin-2-yl)piperidine-2,6-dione]",5 to 10,10 to 50,B (80%< substrate protein remaining %≤ 100%),B (80%< substrate protein remaining %≤ 100%),10 to 50,5 to 10,100 to 500,A (0% ≤ substrate protein remaining % ≤ 80%),500 to 1000,A (0% ≤ substrate protein remaining % ≤ 80%),100 to 500,B (80%< substrate protein remaining %≤ 100%),10 to 50,5 to 10,100 to 500,100 to 500,500 to 1000,A (0% ≤ substrate protein remaining % ≤ 80%),
"O=C1CCC(N2C(=O)c3ccc(CN4CCN(c5ncnc(Cl)c5Cl)CC4)cc3C2=O)C(=O)N1 (stereo not shown) [GT-06623, 5-((4-(5,6-dichloropyrimidin-4-yl)piperazin-1-yl)methyl)-2-(2,6-dioxopiperidin-3-yl)isoindoline-1,3-dione]",,,,,,,,,,,,,,,,,,,100 to 500
"O=C1CCC(N2Cc3cc(CN4CCN(c5ccccc5Br)CC4)ccc3C2=O)C(=O)N1 (stereo not shown) [GT-04456, 3-(5-((4-(2-bromophenyl)piperazin-1-yl)methyl)-1-oxoisoindolin-2-yl)piperidine-2,6-dione]",5 to 10,10 to 50,A (0% ≤ substrate protein remaining % ≤ 80%),A (0% ≤ substrate protein remaining % ≤ 80%),10 to 50,5 to 10,100 to 500,A (0% ≤ substrate protein remaining % ≤ 80%),100 to 500,A (0% ≤ substrate protein remaining % ≤ 80%),100 to 500,A (0% ≤ substrate protein remaining % ≤ 80%),50 to 100,10 to 50,500 to 1000,100 to 500,500 to 1000,A (0% ≤ substrate protein remaining % ≤ 80%),
"Cc1cccc(N2CCN(Cc3ccc4c(c3)CN(C3CCC(=O)NC3=O)C4=O)CC2)c1 (stereo not shown) [GT-04462, 3-(1-oxo-5-((4-(m-tolyl)piperazin-1-yl)methyl)isoindolin-2-yl)piperidine-2,6-dione]",1 to 5,10 to 50,A (0% ≤ substrate protein remaining % ≤ 80%),A (0% ≤ substrate protein remaining % ≤ 80%),1 to 5,10 to 50,10 to 50,A (0% ≤ substrate protein remaining % ≤ 80%),10 to 50,A (0% ≤ substrate protein remaining % ≤ 80%),10 to 50,A (0% ≤ substrate protein remaining % ≤ 80%),5 to 10,1 to 5,10 to 50,10 to 50,500 to 1000,A (0% ≤ substrate protein remaining % ≤ 80%),
